# Reference: patent US9067894B1, “Compound, composition, and method of activating GIRK potassium channel and use of same for treating conditions of interest” (Vanderbilt University, priority 2013, dated 2015)
# Key:
# Format in all cases: cell-based
# GIRK1/4 = target: T1, GIRK1/4 (Homo sapiens, UniProt P48544+P48549); test: Thallium flux assay protocol (Examples 2 and 3), GIRK1/GIRK4 HEK-293 cells; conditions: for GIRK1/4 efficacy (activator): standardized to 2 (ML297) = 100%; for EC50: triplicate determinations
# T1 construct: expressed in transfected cells; host or cells: HEK-293
# T1 sequence (P48549 1-501): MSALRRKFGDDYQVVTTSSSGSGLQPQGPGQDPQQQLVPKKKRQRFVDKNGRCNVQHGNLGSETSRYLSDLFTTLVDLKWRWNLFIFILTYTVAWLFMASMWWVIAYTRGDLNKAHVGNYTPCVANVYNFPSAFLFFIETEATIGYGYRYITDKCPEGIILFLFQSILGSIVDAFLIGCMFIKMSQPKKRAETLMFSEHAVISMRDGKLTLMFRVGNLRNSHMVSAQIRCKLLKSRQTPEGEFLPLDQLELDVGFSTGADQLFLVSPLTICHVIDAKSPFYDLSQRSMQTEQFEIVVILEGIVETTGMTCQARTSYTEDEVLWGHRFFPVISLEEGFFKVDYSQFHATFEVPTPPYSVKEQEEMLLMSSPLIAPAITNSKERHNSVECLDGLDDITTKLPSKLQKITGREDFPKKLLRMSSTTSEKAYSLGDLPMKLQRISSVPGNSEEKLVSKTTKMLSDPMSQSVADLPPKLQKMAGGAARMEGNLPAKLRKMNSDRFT
# T1 sequence (P48544 1-419): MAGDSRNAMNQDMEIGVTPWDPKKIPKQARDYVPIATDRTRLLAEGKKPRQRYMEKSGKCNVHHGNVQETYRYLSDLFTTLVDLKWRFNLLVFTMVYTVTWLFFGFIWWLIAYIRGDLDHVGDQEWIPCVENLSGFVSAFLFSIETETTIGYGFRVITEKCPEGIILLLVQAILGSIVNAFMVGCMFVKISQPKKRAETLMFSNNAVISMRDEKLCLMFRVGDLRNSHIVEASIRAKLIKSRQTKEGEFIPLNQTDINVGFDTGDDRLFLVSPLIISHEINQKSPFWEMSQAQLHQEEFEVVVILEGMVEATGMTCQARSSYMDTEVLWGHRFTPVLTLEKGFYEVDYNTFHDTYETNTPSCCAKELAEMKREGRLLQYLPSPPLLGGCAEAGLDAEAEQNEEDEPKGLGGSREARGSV
# Protocol: (§1) Compounds were dissolved in DMSO, transferred to 384-well polypropylene plates, and serially diluted in DMSO using and Agilent Bravo (11-points, threefold dilutions). Serially diluted plates were dispensed to daughter plates using a Labcyte Echo555 and diluted to twofold over their target assay concentration with 20 mM HEPES-buffered (pH 7.4) Hanks Balanced Salt Solution (HBSS), hereafter referred to as Assay Buffer, using a Thermo Fisher Combi. Twenty-thousand HEK-293 cells/well stably transfected with the ion channel subunits of interest (e.g., GIRK1/GIRK2, GIRK1/GIRK4) were plated into 384-well, black-walled, clear-bottom, amine-coated coated plates in 20 LL/well alpha-minimal essential medium (MEM) supplemented with 10% (v/v) fetal bovine serum and incubated overnight in a 5% CO2 incubator at 37° C. Cell culture medium was removed from cell plates and replaced with 20 LL/well Assay Buffer. Twenty microliters/well of 0.5 LM of the thallium-sensitive dye, Thallos-AM (TEFlabs, Austin Tex.) in Assay Buffer was added to cell plates. Cell plates were incubated for 60 min at room temperature and then dye-loading solution was removed from cell plates and replaced with 20 LL/well Assay Buffer. Dye loaded and washed cell plates were transferred to a Hamamatsu FDSS 6000 and a double-addition protocol was initiated. After 10s, 20 LL/well of 20 LM test compound in 0.2% DMSO and Assay Buffer was added. After 4 min 10 LL/well of a 5× sodium bicarbonate-based thallium stimulus buffer (20 mM HEPES pH 7.4, 135 mM NaHCO3, 2 mM CaSO4, 1 mM MgSO4, 5 mM glucose, 12 mM Tl2SO4) was added and 2 more minutes of data collection followed. Fluorescence data were collected at 1 Hz. Data analysis: Waveform signals (fluorescence intensity vs time normalized by dividing each fluorescence value (F) by the initial fluorescence value for each trace (F0)) were reduced to single values by subtracting the average normalized waveform from vehicle control wells from each wave on the plate followed by obtaining the slope of the change in fluorescence immediately after the addition of the thallium stimulus. Slope values were normalized as a percentage of the slope obtained by the addition of a maximally effective concentration of the GIRK activator, ML297 (e.g., an efficacy value of 100% means that the compound's maximum apparent efficacy equals that of ML297). Curve fits for normalized slope values were obtained using a four-parameter logistic equation in the Excel add-in, XLfit.
# GIRK1/2 [1] = target: T2, GIRK1/2 (Homo sapiens, UniProt P48051+P48549); test: Thallium flux assay protocol (Examples 2 and 3), GIRK1/GIRK2 HEK-293 cells; parameters: expressed in transfected cells; host or cells: HEK-293; conditions: for GIRK1/2 efficacy (activator): standardized to 2 (ML297) = 100%; for EC50: triplicate determinations
# T2 sequence (P48549 1-501): T1 sequence (P48549 1-501)
# T2 sequence (P48051 1-423): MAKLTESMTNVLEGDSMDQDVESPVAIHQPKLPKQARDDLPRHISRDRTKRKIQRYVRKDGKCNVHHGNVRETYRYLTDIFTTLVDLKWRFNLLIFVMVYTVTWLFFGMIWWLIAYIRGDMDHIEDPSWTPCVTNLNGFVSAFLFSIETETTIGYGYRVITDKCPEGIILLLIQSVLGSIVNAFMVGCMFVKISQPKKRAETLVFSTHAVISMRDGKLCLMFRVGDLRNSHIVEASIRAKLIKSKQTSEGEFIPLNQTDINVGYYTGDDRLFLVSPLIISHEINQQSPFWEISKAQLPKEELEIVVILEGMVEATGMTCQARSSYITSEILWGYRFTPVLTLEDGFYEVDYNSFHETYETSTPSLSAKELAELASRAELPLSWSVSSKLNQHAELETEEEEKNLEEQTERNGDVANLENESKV
# Protocol: as §1, with “Slope values were normalized as a percentage of the slope obtained by the addition of a maximally effective concentration of the GIRK activator, ML297 (e.g., an efficacy value of 100% means that the compound's maximum apparent efficacy equals that of ML297).” left out
# GIRK1/2 [2] = target: T2, GIRK1/2; test: Thallium flux assay, HEK-293 cells expressing GIRK1/2; parameters: host or cells: HEK-293; conditions: confirmed GIRK activator of GIRK1/2, HTS hit; read-out: EC50
# From the text: Cell Line Construction and Cell Culture. HEK-293 cells co-expressing human GIRK1/2 and rat mGlu8 were generated as previously described (Niswender et al., 2008). A HEK-293 cell line (ATCC, Manassas, Va.) expressing human GIRK1 and human GIRK2 was constructed by transfecting HEK-293 cells with GIRK1 and GIRK2 (Origene, Rockville, Md.) cloned into the pBudCE4.1 vector (Life Technologies, Carlsbad, Calif.) using FuGene 6 (Promega, Madison, Wis.) transfection reagent. Unless otherwise noted, other ion channel-expressing cells were prepared by transfecting HEK-293 cells with individual or combinations of subunits: GIRK1, pCMV6-A-BSD; GIRK2, pCMV6-A-puro; GIRK3, pCMV6-A-hygro; GIRK4, pCMV6-A-AC; Kv7.4, pIRESneo3. The Kir2.1 and hERG-expressing cell lines were made by transfecting T-REx-293 cells (Life Technologies, Carlsbad, Calif.) with Kir2.1 and Kv11.1, respectively, cloned into pcDNA5TO. Monoclonal cell lines were produced by limiting-dilution cloning of antibiotic-resistant cells and functional selection using the thallium flux assay described below. Unless otherwise noted, cells were maintained in Minimal Essential Medium, Alpha Medium (Mediatech, Manassas, Va.) supplemented with 10% fetal bovine serum (Sigma-Aldrich, Saint Louis, Mo.) and GlutaGro (Mediatech, Manassas, Va.), referred to henceforth as cell culture medium. […]
Compound,GIRK1/4 efficacy (activator) (GIRK1/4) [%],GIRK1/2 efficacy (activator) (GIRK1/2 [1]) [%],"EC50 (GIRK1/4; Table 4, analogs 8) [µM]",further results
Cc1ccc(NC(=O)Cc2ccccc2Br)cc1S(=O)(=O)N(C)C [3a],114,108,,
Cc1cc(NC(=O)Nc2ccc(F)c(F)c2)n(Cc2ccccc2)n1 [5d],99,87,,
Cc1ccc(NC(=O)Nc2ccc(C(F)(F)F)cc2)cc1S(=O)(=O)N(C)C [6h],,26,,"EC50 (GIRK1/2 [1]; Table 3, analogs 6 (ureas)): 15 µM"
COc1ccc(OC)c(NC(=O)Nc2ccc(C)c(S(=O)(=O)N(C)C)c2)c1 [6i],,,,activity at GIRK1/4 (in words) (GIRK1/4): inactive; activity at GIRK1/2 (in words) (GIRK1/2 [1]): inactive
Cc1ccc(NC(=O)Nc2cccc(C#N)c2)cc1S(=O)(=O)N(C)C [6j],,,,"EC50 (GIRK1/4; Table 3, analogs 6 (ureas)): 3.3 µM"
CC(C)(C)c1cccc(NC(=O)Cc2ccccc2Cl)c1 [8b],,,2.7,"EC50 (GIRK1/2 [1]; Table 4, analogs 8): 5.9 µM"
O=C(Cc1ccccc1Cl)Nc1cccc(OC(F)F)c1 [8c],,,7.8,
O=C(Cc1ccccc1Cl)Nc1cc(Cl)cc(C(F)(F)F)c1 [8d],,,> 10,"EC50 (GIRK1/2 [1]; Table 4, analogs 8): > 10 µM"
O=C(Cc1ccccc1Cl)Nc1ccc(Cl)c(C(F)(F)F)c1 [8e],17,,0.24,activity at GIRK1/2 (in words) (GIRK1/2 [1]): inactive
O=C(Cc1ccccc1Cl)Nc1cccc(Cl)c1 [8g],22,,1.8,"activity at GIRK1/4 (in words) (GIRK1/4): selective, partial GIRK1/4 activators"
Cc1cccc(NC(=O)Cc2ccccc2Cl)c1 [8i],,,,activity at GIRK1/4 (in words) (GIRK1/4): inactive; activity at GIRK1/2 (in words) (GIRK1/2 [1]): inactive
Cc1cc(NC(=O)Nc2ccccc2)n(-c2ccccc2)n1 [CID736191],,,,EC50 (GIRK1/2 [2]): ~1 µM
Cc1ccc(NC(=O)Cc2ccccc2Cl)cc1S(=O)(=O)N(C)C [compound 3],104,110,,
